Measurements reported in PMC7699892, “Repositioned Drugs for Chagas Disease Unveiled via Structure-Based Drug Repositioning” (International Journal of Molecular Sciences, 2020).

Key:
[1] = tested on: T. cruzi; parameters: method as in per drug in column Reference of Table 2; settings: class of literature evidence of trypanocidal activity; ref per drug in Table 2; cited from earlier work; note: key: ? indicates unknown activity; + indicates indirect evidence of activity; ++ indicates direct evidence of activity
[2] = tested on: T. cruzi blood trypomastigote (Ninoa strain); test: ex vivo evaluation against blood trypomastigotes, Ninoa strain; type: cell-based; settings: Trypanosoma cruzi, 24 h at 4 °C
From the text: (§1) The high-priority hit drugs were subjected to experimental validation in vitro, ex vivo, and in vivo, together with a cytotoxicity assay. Ninoa and INC-5 strains of T. cruzi were used in this study. The Ninoa strain was obtained in 1986 by xenodiagnoses from an acute case of Chagas’ disease in Oaxaca, Mexico, whereas the INC-5 strain was obtained in 1997 from a chronic case of Chagas’ disease in a person in Guanajuato, Mexico.
(§2) Ex vivo evaluation of different FDA-approved drugs against Trypanosoma cruzi blood trypomastigotes. The ex vivo evaluation of the trypanocidal activity of the FDA-approved drugs was carried out according to the methodology described above. Blood from parasite infected animals was obtained from intracardiac puncture and diluted with phosphate-buffered saline (PBS), pH 7.2, until a concentration of 2 × 10^6 blood trypomastigotes/mL was obtained. From this, 195 µL of blood/well was placed in a 96-well plate and incubated at 4 °C for 24 h with 5 µL of each drug tested at different concentrations (5 µg/mL to […]). […] After incubation, live parasites were counted in a Neubauer chamber and the IC50 was calculated. Three independent experiments by triplicate were performed.

[3] = tested on: T. cruzi blood trypomastigote (INC-5 strain); test: ex vivo evaluation against blood trypomastigotes, INC-5 strain; type: cell-based; settings: Trypanosoma cruzi; ex vivo, INC-5 strain, 24 h at 4 °C; read-out: T.cruzi blood trypomastigote IC50 INC-5
From the text: as §1, §2

[4] = tested on: T. cruzi epimastigote (INC-5 strain); test: in vitro evaluation against epimastigotes, INC-5 strain (resazurin); type: cell-based; settings: Trypanosoma cruzi, 48 h at 28 °C
From the text: (§3) The high-priority hit drugs were subjected to experimental validation in vitro, ex vivo, and in vivo, together with a cytotoxicity assay. Ninoa and INC-5 strains of T. cruzi were used in this study. […] In vitro evaluation of different FDA-approved drugs against Trypanosoma cruzi epimastigotes. The epimastigote stage of Ninoa and INC5 strains of T. cruzi were used to evaluated the in vitro trypanocidal activity of different FDA-approved drugs. Both strains were maintained in liver infusion tryptose (LIT) medium, supplemented with 10% fetal bovine serum (FBS) and 0.1% penicillin–streptomycin. They were preserved by transferring 1 × 10^6 parasites/mL into a new culture medium every week. […] All compounds were initially prepared at 10 mg/mL, using dimethyl sulfoxide (DMSO) as diluent. Serial dilutions were performed using complemented LIT medium until concentrations of 100 to 0.46 µg/mL of each drug were obtained. […] After the incubation period, 20 µL of 2.5 mM resazurin solution were added to each well and incubated for 3 h. All assays were carried out in triplicate.

[5] = tested on: T. cruzi epimastigote (Ninoa strain); test: in vitro evaluation against epimastigotes, Ninoa strain (resazurin); type: cell-based; settings: Trypanosoma cruzi, 48 h at 28 °C
From the text: as §3

[6] = tested on: T. cruzi Ninoa strain; test: in vivo short-term trypanocidal activity (parasitemia) in infected CD1 mice, Ninoa strain; parameters: species or system Trypanosoma cruzi in CD1 mice; settings: for Parasitemia inhibition percentage over the time, 2 horas Ninoa / Parasitemia inhibition percentage over the time, 4 horas Ninoa / Parasitemia inhibition percentage over the time, 6 horas Ninoa: 100 mg/kg oral; for parasitemia inhibition: mice infected with Ninoa strain, single oral dose 100 mg/kg, eight hours after administration
Protocol: (§4) Parasitemia was monitored at 2, 4, 6, and 8 h after administration (see Figure 2).
(§5) CD1 strain mice, 6–8 weeks old, were used to maintain Ninoa and INC-5 strains of T. cruzi. Animals were given by the University of Science and Arts of Chiapas. To maintain the strains, animals were intraperitoneally inoculated every 14 days with 1 × 10^5 blood trypomastigote, obtained from parasite-infected mice. Parasitemia was monitored every three days by the Pizzi method. For this, 5 µL of blood from the caudal vein of infected mice were deposited on a slide and evenly distributed with an 18 × 18 mm coverslip. Parasite counting was performed by observing 15 microscopic fields using a 40 × objective lens. For the in vivo short term evaluation of the trypanocidal activity of the FDA-approved drugs, six groups of six CD1 mice each with homogeneous weight and parasitemia were used.
(§6) In vivo short-term evaluation of the trypanocidal activity of the FDA-approved drugs. Six groups of six CD1 female mice were infected with blood trypomastigotes of Ninoa and INC-5 strains following the methodology previously described in Romanha et al. and in Díaz-Chiguer et al.. At day 13 post-infection, when the infected mice reached an average of 5 × 10^6 parasites/mL, a single dose of the FDA-approved drugs at 100 mg/kg body weight was orally administered. Parasitemia was monitored following the Pizzi method at 2, 4, 6, and 8 h post-treatment […] using mineral oil as a vehicle. […] Mice examination was performed as stated in the Norma Official Mexicana (NOM-062-Z00-1999), published on August 2009.

[7] = tested on: T. cruzi INC-5 strain; test: in vivo short-term trypanocidal activity (parasitemia) in infected CD1 mice, INC-5 strain; parameters: species or system Trypanosoma cruzi in CD1 mice; settings: for Parasitemia inhibition percentage over the time, 2 horas INC-5 / Parasitemia inhibition percentage over the time, 4 horas INC-5 / Parasitemia inhibition percentage over the time, 6 horas INC-5: 100 mg/kg oral; for parasitemia inhibition: mice infected with INC-5 strain, single oral dose 100 mg/kg, eight hours after administration
Protocol: as §4, §5, §6

[8] = tested on: T. cruzi epimastigotes; parameters: method as in PMID 32560043; settings: cited from earlier work
[9] = 6 horas (first column so headed)
[10] = 6 horas (second, last column so headed)

COc1cccc2c1C(=O)c1c(O)c3c(c(O)c1C2=O)C[C@@](O)(C(C)=O)C[C@@H]3O[C@H]1C[C@H](N)[C@H](O)[C@H](C)O1 [Aunomycin]
Trypan. Activity [1]: +

O=C(Cn1ccnc1[N+](=O)[O-])NCc1ccccc1 [Benznidazole]
IC50 [2]: 156 ± 0.11 µM | IC50 [3]: 130.6 ± 0.08 µM | IC50 [4]: 19.9 ± 0.23 µM

O=C(O)c1ccccc1 [Benzoic acid]
Trypan. Activity [1]: ++

Cc1ccc(-c2cc(C(F)(F)F)nn2-c2ccc(S(N)(=O)=O)cc2)cc1 [Celecoxib]
IC50 [2]: > 100 µM | IC50 [3]: > 100 µM | IC50 [5]: > 400 µM | IC50 [4]: > 400 µM

CN(C)CCCC1(c2ccc(F)cc2)OCc2cc(C#N)ccc21 (centres unmarked) [Citalopram]
Trypan. Activity [1]: ++

Nc1nc(=O)c2nc(CNc3ccc(C(=O)N[C@@H](CCC(=O)O)C(=O)O)cc3)cnc2[nH]1 [Folic acid]
IC50 [2]: 28.1 ± 0.01 µM | IC50 [3]: 21.5 ± 0.03 µM | IC50 [5]: > 400 µM | IC50 [4]: > 400 µM | Parasitemia inhibition percentage over the time, 2 horas Ninoa [6]: 100 | Parasitemia inhibition percentage over the time, 4 horas Ninoa [6]: 71 | Parasitemia inhibition percentage over the time, 6 horas Ninoa [6, 9]: 42.8 | Parasitemia inhibition percentage over the time, 6 horas Ninoa [6, 10]: 42.8 | parasitemia inhibition [6]: 57.2% | Parasitemia inhibition percentage over the time, 2 horas INC-5 [7]: 100 | Parasitemia inhibition percentage over the time, 4 horas INC-5 [7]: 50 | Parasitemia inhibition percentage over the time, 6 horas INC-5 [7, 9]: 33.3 | Parasitemia inhibition percentage over the time, 6 horas INC-5 [7, 10]: 33.3 | parasitemia inhibition [7]: 66.7%

O=C(O)P(=O)(O)O [Foscarnet]
Trypan. Activity [1]: ++

Cc1cnc(C(=O)NCCc2ccc(S(=O)(=O)NC(=O)NC3CCCCC3)cc2)cn1 [Glipizide]
growth inhibitory activity on T. cruzi epimastigotes [8]: micromolar range

COc1ccc2c(c1)C(=O)N(CCc1ccc(S(=O)(=O)NC(=O)NC3CCCCC3)cc1)C(=O)C2(C)C [Gliquidone]
growth inhibitory activity on T. cruzi epimastigotes [8]: micromolar range

N[C@@H](CCC(=O)N[C@@H](CS)C(=O)NCC(=O)O)C(=O)O [Glutathione]
IC50 [2]: > 100 µM | IC50 [3]: > 100 µM | IC50 [5]: > 400 µM | IC50 [4]: > 400 µM

COc1ccc(Cl)cc1C(=O)NCCc1ccc(S(=O)(=O)NC(=O)NC2CCCCC2)cc1 [Glyburide]
growth inhibitory activity on T. cruzi epimastigotes [8]: micromolar range

CC1=C(/C=C/C(C)=C/C=C/C(C)=C\C(=O)O)C(C)(C)CCC1 [Isotretinoin]
Trypan. Activity [1]: ++

Nc1nc2c(c(=O)[nH]1)N(C=O)C(CNc1ccc(C(=O)N[C@@H](CCC(=O)O)C(=O)O)cc1)CN2 (some centres unmarked) [Leucovorin]
IC50 [2]: > 100 µM | IC50 [3]: > 100 µM | IC50 [5]: > 400 µM | IC50 [4]: > 400 µM

CC12CC3CC(C)(C1)CC(N)(C3)C2 [Memantine]
Trypan. Activity [1]: ++

CN(C)c1ccc(O)c2c1C[C@H]1C[C@H]3[C@H](N(C)C)C(O)=C(C(N)=O)C(=O)[C@@]3(O)C(O)=C1C2=O [Minocycline]
Trypan. Activity [1]: ++

COc1ccc2cc([C@H](C)C(=O)O)ccc2c1 [Naproxen]
IC50 [2]: 58.5 ± 0.07 µM | IC50 [3]: 38.3 ± 0.06 µM | IC50 [5]: > 400 µM | IC50 [4]: > 400 µM | Parasitemia inhibition percentage over the time, 2 horas Ninoa [6]: 100 | Parasitemia inhibition percentage over the time, 4 horas Ninoa [6]: 71 | Parasitemia inhibition percentage over the time, 6 horas Ninoa [6, 9]: 28.5 | Parasitemia inhibition percentage over the time, 6 horas Ninoa [6, 10]: 14.2 | parasitemia inhibition [6]: 85.8% | Parasitemia inhibition percentage over the time, 2 horas INC-5 [7]: 100 | Parasitemia inhibition percentage over the time, 4 horas INC-5 [7]: 85.7 | Parasitemia inhibition percentage over the time, 6 horas INC-5 [7, 9]: 71.4 | Parasitemia inhibition percentage over the time, 6 horas INC-5 [7, 10]: 57.1 | parasitemia inhibition [7]: 42.9%

NC(=O)c1cccnc1 [Nicotinamide]
Trypan. Activity [1]: ++

CC1CS(=O)(=O)CCN1/N=C/c1ccc([N+](=O)[O-])o1 (centres unmarked) [Nifurtimox]
IC50 [2]: 167.1 ± 0.03 µM | IC50 [3]: 115.2 ± 0.17 µM | IC50 [5]: 7.09 ± 0.12 µM | IC50 [4]: 6.47 ± 0.42 µM | Parasitemia inhibition percentage over the time, 2 horas Ninoa [6]: 100 | Parasitemia inhibition percentage over the time, 4 horas Ninoa [6]: 50 | Parasitemia inhibition percentage over the time, 6 horas Ninoa [6, 9]: 27.0 | Parasitemia inhibition percentage over the time, 6 horas Ninoa [6, 10]: 22.2 | parasitemia inhibition [6]: 77.8% | Parasitemia inhibition percentage over the time, 2 horas INC-5 [7]: 100 | Parasitemia inhibition percentage over the time, 4 horas INC-5 [7]: 66.6 | Parasitemia inhibition percentage over the time, 6 horas INC-5 [7, 9]: 55.5 | Parasitemia inhibition percentage over the time, 6 horas INC-5 [7, 10]: 27.7 | parasitemia inhibition [7]: 72.3%

Cc1cn(-c2cc(NC(=O)c3ccc(C)c(Nc4nccc(-c5cccnc5)n4)c3)cc(C(F)(F)F)c2)cn1 [Nilotinib]
growth inhibitory activity on T. cruzi epimastigotes [8]: micromolar range

CC(=O)O[C@H]1C(=O)[C@@]2(C)[C@H]([C@H](OC(=O)c3ccccc3)[C@]3(O)C[C@H](OC(=O)[C@H](O)[C@@H](NC(=O)c4ccccc4)c4ccccc4)C(C)=C1C3(C)C)[C@]1(OC(C)=O)CO[C@@H]1C[C@@H]2O [Paclitaxel]
Trypan. Activity [1]: ++

Nc1nc2[nH]cc(CCc3ccc(C(=O)N[C@@H](CCC(=O)O)C(=O)O)cc3)c2c(=O)[nH]1 [Pemetrexed]
Trypan. Activity [1]: +

CC(=O)CCCCn1c(=O)c2c(ncn2C)n(C)c1=O [Pentoxifylline]
IC50 [2]: > 100 µM | IC50 [3]: > 100 µM | IC50 [5]: > 400 µM | IC50 [4]: > 400 µM | Trypan. Activity [1]: +

CC(=O)[C@H]1CC[C@H]2[C@@H]3CCC4=CC(=O)CC[C@]4(C)[C@H]3CC[C@]12C [Progesterone]
Trypan. Activity [1]: +

C=C[C@H]1C[N@@]2CC[C@H]1C[C@H]2[C@H](O)c1ccnc2ccc(OC)cc12 [Quinine]
Trypan. Activity [1]: ++

CC(N)C12CC3CC(CC(C3)C1)C2 (centres unmarked) [Rimantadine]
Trypan. Activity [1]: ++

CC(C)(C)NC(=O)[C@@H]1C[C@@H]2CCCC[C@@H]2CN1C[C@@H](O)[C@H](Cc1ccccc1)NC(=O)[C@H](CC(N)=O)NC(=O)c1ccc2ccccc2n1 [Saquinavir]
Trypan. Activity [1]: ++

Cn1c(=O)c2[nH]cnc2n(C)c1=O [Theophylline]
IC50 [2]: > 100 µM | IC50 [3]: > 100 µM | IC50 [5]: > 400 µM | IC50 [4]: > 400 µM

CSc1ccc2c(c1)N(CCC1CCCCN1C)c1ccccc1S2 (centres unmarked) [Thioridazine]
Trypan. Activity [1]: ++

Nc1nc2nc[nH]c2c(=S)[nH]1 [Tioguanine]
Trypan. Activity [1]: ++

Nc1nc(N)c2nc(-c3ccccc3)c(N)nc2n1 [Triamterene]
Trypan. Activity [1]: ++

COc1cc(Cc2cnc(N)nc2N)cc(OC)c1OC [Trimethoprim]
Trypan. Activity [1]: ++

CC(=O)N[C@H]1[C@H]([C@H](O)[C@H](O)CO)OC(C(=O)O)=C[C@@H]1N=C(N)N [Zanamivir]
Trypan. Activity [1]: ++
